Assay results published in ChEMBL document CHEMBL1201862, “PubChem BioAssay data set” (2004).
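Compound exposure: 48 hours, 5 concentrations, 96-well plates. GI50 marks 50% less growth.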 Activity calls are given as the source filed them. No stated cut-off is given here; in the data, active = GI50 up to about 1.1 µM and inactive = higher.

Assays:
Test in all cases: growth of human tumour cells (NCI), 48 h
[1] = system: 786-0
[2] = system: A549
[3] = system: ACHN
[4] = system: BT-549
[5] = system: CAKI-1
[6] = system: CCRF-CEM
[7] = system: COLO 205
[8] = system: DU-145
[9] = system: EKVX
[10] = system: HCC 2998
[11] = system: HCT-116
[12] = system: HCT-15
[13] = system: HL-60
[14] = system: HOP-62
[15] = system: HOP-92
[16] = system: HT-29
[17] = system: Hs-578T
[18] = system: IGROV-1
[19] = system: K562
[20] = system: KM12
[21] = system: LOX IMVI
[22] = system: M14
[23] = system: MCF7
[24] = system: MDA-MB-231
[25] = system: MDA-MB-435
[26] = system: MDA-N
[27] = system: MOLT-4
[28] = system: NCI-H226
[29] = system: NCI-H23
[30] = system: NCI-H460
[31] = system: OVCAR-3
[32] = system: OVCAR-4
[33] = system: OVCAR-5
[34] = system: PC-3
[35] = system: RPMI-8226
[36] = system: RXF 393
[37] = system: SF-268
[38] = system: SF-295
[39] = system: SF-539
[40] = system: SK-MEL-28
[41] = system: SK-MEL-2
[42] = system: SK-MEL-5
[43] = system: SK-OV-3
[44] = system: SN12C
[45] = system: SNB-19
[46] = system: SNB-75
[47] = system: SW-620
[48] = system: T47D
[49] = system: TK-10
[50] = system: U-251
[51] = system: UACC-257
[52] = system: UACC-62
[53] = system: UO-31
[54] = system: A498
[55] = system: Malme-3M
[56] = system: NCI-H522
[57] = system: NCI/ADR-RES
[58] = system: OVCAR-8
[59] = system: SR

Structure (SMILES): CCn1c(O)c(C(=O)NC(C)c2ccc([N+](=O)[O-])cc2)c(=O)n(CC)c1=S (stereo not given)
- GI50 [1]: 3.27 µM (inactive)
- GI50 [2]: 1.52 µM (inactive)
- GI50 [3]: 3.1 µM (inactive)
- GI50 [4]: 2.21 µM (inactive)
- GI50 [5]: 2.55 µM (inactive)
- GI50 [6]: 1.59 µM (inactive)
- GI50 [7]: 1.81 µM (inactive)
- GI50 [8]: 2.54 µM (inactive)
- GI50 [9]: 3.23 µM (inactive)
- GI50 [10]: 3.29 µM (inactive)
- GI50 [11]: 1.64 µM (inactive)
- GI50 [12]: 2.58 µM
- GI50 [13]: 2.28 µM (inactive)
- GI50 [14]: 2.31 µM (inactive)
- GI50 [15]: 2.75 µM (inactive)
- GI50 [16]: 2.34 µM (inactive)
- GI50 [17]: 2.52 µM (inactive)
- GI50 [18]: 2.75 µM (inactive)
- GI50 [19]: 0.951 µM (active)
- GI50 [20]: 2.01 µM (inactive)
- GI50 [21]: 2.31 µM (inactive)
- GI50 [22]: 2.6 µM (inactive)
- GI50 [23]: 2.34 µM (inactive)
- GI50 [24]: 2.91 µM (inactive)
- GI50 [25]: 3.62 µM (inactive)
- GI50 [26]: 3.59 µM (inactive)
- GI50 [27]: 2.05 µM (inactive)
- GI50 [28]: 2.75 µM (inactive)
- GI50 [29]: 1.77 µM (inactive)
- GI50 [30]: 2.41 µM (inactive)
- GI50 [31]: 2.16 µM (inactive)
- GI50 [32]: 1.48 µM (inactive)
- GI50 [33]: 2.23 µM (inactive)
- GI50 [34]: 0.773 µM (active)
- GI50 [35]: 1.43 µM (inactive)
- GI50 [36]: 3.11 µM (inactive)
- GI50 [37]: 3.92 µM (inactive)
- GI50 [38]: 1 µM (active)
- GI50 [39]: 3.93 µM (inactive)
- GI50 [40]: 4.27 µM (inactive)
- GI50 [41]: 1.02 µM (active)
- GI50 [42]: 3.13 µM (inactive)
- GI50 [43]: 3.09 µM (inactive)
- GI50 [44]: 3.52 µM (inactive)
- GI50 [45]: 1.93 µM (inactive)
- GI50 [46]: 2.16 µM (inactive)
- GI50 [47]: 2.43 µM (inactive)
- GI50 [48]: 3.33 µM (inactive)
- GI50 [49]: 4.06 µM (inactive)
- GI50 [50]: 1.84 µM (inactive)
- GI50 [51]: 3.85 µM (inactive)
- GI50 [52]: 2.17 µM (inactive)
- GI50 [53]: 1.92 µM (inactive)

Structure (SMILES): COC(=O)C1=C(O)CCCC(CCC(C)=O)=C1
- GI50 [1]: 26.9 µM (inactive)
- GI50 [54]: > 100 µM (inactive)
- GI50 [2]: 95.3 µM (inactive)
- GI50 [3]: 32.4 µM (inactive)
- GI50 [4]: > 100 µM (inactive)
- GI50 [5]: 47.6 µM (inactive)
- GI50 [6]: 9.71 µM (inactive)
- GI50 [7]: 20.5 µM (inactive)
- GI50 [8]: 41.2 µM (inactive)
- GI50 [9]: 83.2 µM (inactive)
- GI50 [10]: > 100 µM (inactive)
- GI50 [11]: 17.5 µM (inactive)
- GI50 [12]: 39.3 µM
- GI50 [13]: 3.99 µM (inactive)
- GI50 [15]: 28.9 µM (inactive)
- GI50 [16]: 57.4 µM (inactive)
- GI50 [17]: > 100 µM (inactive)
- GI50 [18]: 41.2 µM (inactive)
- GI50 [19]: 31.3 µM (inactive)
- GI50 [20]: 80.2 µM (inactive)
- GI50 [21]: 38.2 µM (inactive)
- GI50 [22]: 47 µM (inactive)
- GI50 [24]: 73.8 µM (inactive)
- GI50 [25]: 69.5 µM (inactive)
- GI50 [26]: 31.9 µM (inactive)
- GI50 [27]: 36.5 µM (inactive)
- GI50 [55]: 41.3 µM (inactive)
- GI50 [28]: > 100 µM (inactive)
- GI50 [29]: 94.4 µM (inactive)
- GI50 [30]: 30.7 µM (inactive)
- GI50 [56]: 12.5 µM (inactive)
- GI50 [57]: > 100 µM (inactive)
- GI50 [31]: 48.8 µM (inactive)
- GI50 [32]: 46.9 µM (inactive)
- GI50 [33]: > 100 µM (inactive)
- GI50 [58]: 56.5 µM (inactive)
- GI50 [34]: > 100 µM (inactive)
- GI50 [35]: 29.4 µM (inactive)
- GI50 [36]: 33.4 µM (inactive)
- GI50 [37]: > 100 µM (inactive)
- GI50 [38]: > 100 µM (inactive)
- GI50 [39]: 22.2 µM (inactive)
- GI50 [40]: > 100 µM (inactive)
- GI50 [41]: > 100 µM (inactive)
- GI50 [42]: > 100 µM (inactive)
- GI50 [43]: > 100 µM (inactive)
- GI50 [44]: 41 µM (inactive)
- GI50 [45]: > 100 µM (inactive)
- GI50 [46]: 76.6 µM (inactive)
- GI50 [59]: 21.8 µM (inactive)
- GI50 [47]: 31.6 µM (inactive)
- GI50 [48]: 35.6 µM (inactive)
- GI50 [49]: > 100 µM (inactive)
- GI50 [50]: 43.2 µM (inactive)
- GI50 [51]: 98.4 µM (inactive)
- GI50 [52]: 46 µM (inactive)
- GI50 [53]: 39.9 µM (inactive)
